Results on 5 compounds are retold here after paper PMC7705649 (Scientific Reports, 2020).

The nature of data set [1]: RP-HPLC hydrophobicity determination (C18 column). The class given is physicochemical. The following applies: Symmetry C18, phosphate-buffered saline/methanol, y-intercept of log k vs methanol fraction, 25 °C; ± 95% confidence interval. On the procedure: All HPLC measurements were carried out on an Agilent 1100 series HPLC system (Agilent Technologies, Waldbronn, Germany) coupled with a diode array detector (DAD). System control, data collection and data processing were accomplished using ChemStation for LC 3D software by Agilent Technologies. RP-HPLC hydrophobicity determination was carried on Symmetry C18 reversed-phase column (150 × 4.6 mm, 3.5 µm particle size) obtained by Waters (Milford, MA, USA), with phosphate-buffered saline and methanol as mobile phase. The flow rate was set at 1.0 mL/min with the injection volume of 10.0 µL whilst the column temperature was maintained at 25.0 ± 0.1 °C. To obtain hydrophobicity, the log k values were calculated using retention times of investigated compounds (tR) and retention time of sodium nitrate as unretained compound (t0). […] At least five different concentrations of methanol in the mobile phase were applied for each standard substance and all measurements at each methanol fraction were performed in triplicates. […] Column equilibration time of 20 min was necessary after every change of mobile phase. Finally, log kw C18 value, describing hydrophobicity, was obtained by calculating the y-intercept of the regression line in a plot of log k vs. methanol fraction in the mobile phase.

The nature of data set [2]: Affinity for immobilized phospholipids (IAM chromatography). The class given is physicochemical. The following applies: IAM.PC.DD2 column, phosphate-buffered saline/methanol, y-intercept of log k vs methanol fraction; ± 95% confidence interval. From the text:
The same HPLC conditions, mobile phases and calculation approaches were used for evaluation of IAM affinity, as in determining hydrophobicity with the RP-HPLC column.

The subject of the next data set is α1-acid-glycoprotein. The data set is described as follows: Plasma protein binding on biomimetic AGP column. In kind it is in vitro ADME. To be noted: for PPBAGP (%): binding percentage to α1-acid-glycoprotein, biomimetic column, ± RSD (%).
Data set [3] has as its target T1, human serum albumin (Homo sapiens, UniProt P02768). The following applies: binding percentage to human serum albumin, biomimetic column, ± RSD (%).
Data set [4] has as its target T1, human serum albumin. The data set can be described thus: Frontal analysis of FA on HSA column (HPAC). The class given is binding. On the procedure:
Frontal and zonal elution studies were carried out on HSA (Chiralpak-HSA, 50 × 4.6 mm, 5 μm particle size) biomimetic column obtained by ChromTech (Cedex, France). […] Injection volume was set at 10.0 µL and the measurements were carried out at 25.0 ± 0.1 °C.

“And” between values parts separate entries of the source, which are not always exact repeats. Equal values may be shown once. Read-outs that look alike come from different tables or passages of the source.

T1 sequence (P02768 25-609): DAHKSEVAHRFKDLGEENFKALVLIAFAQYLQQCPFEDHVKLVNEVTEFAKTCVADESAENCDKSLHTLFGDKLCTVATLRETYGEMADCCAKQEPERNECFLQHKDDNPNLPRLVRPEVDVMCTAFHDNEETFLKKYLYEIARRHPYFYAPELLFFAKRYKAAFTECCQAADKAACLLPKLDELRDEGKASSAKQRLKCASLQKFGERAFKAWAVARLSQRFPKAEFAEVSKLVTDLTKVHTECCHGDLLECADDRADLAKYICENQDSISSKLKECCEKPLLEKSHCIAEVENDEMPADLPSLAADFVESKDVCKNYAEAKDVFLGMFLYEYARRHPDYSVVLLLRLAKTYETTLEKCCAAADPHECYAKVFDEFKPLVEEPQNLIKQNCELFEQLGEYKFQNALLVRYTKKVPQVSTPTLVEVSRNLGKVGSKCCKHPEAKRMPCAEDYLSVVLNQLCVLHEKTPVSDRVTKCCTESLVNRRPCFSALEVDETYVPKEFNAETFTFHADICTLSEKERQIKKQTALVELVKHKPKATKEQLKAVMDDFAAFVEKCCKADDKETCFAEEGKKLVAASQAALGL

Regarding `O=C(O)CCNC(=O)c1ccc(/N=N/c2ccc(O)c(C(=O)O)c2)cc1` [BSZ, balsalazide], the “log kw C18” value in data set [1] came out at 3.01 ± 0.09. The “log kw IAM” value in data set [2] came out at 1.20 ± 0.11. Moreover, the “PPBAGP (%)” value with α1-acid-glycoprotein came out at 77.60 ± 0.58%. In addition, the “affinity for AGP lower than for HSA” value with α1-acid-glycoprotein (difference PPBHSA minus PPBAGP) was found to be 14%. Moreover, on human serum albumin [3], the “PPBHSA (%)” value is recorded as 91.64 ± 0.04%.

As for `Nc1nc2ncc(CNc3ccc(C(=O)N[C@@H](CCC(=O)O)C(=O)O)cc3)nc2c(=O)[nH]1` [FA, folic acid], in data set [1], the “log kw C18” value is 0.99 and 0.99 ± 0.31. The “PPBAGP (%)” value with α1-acid-glycoprotein is given as 3.45%. Further, on human serum albumin [4] (frontal analysis, HSA column, brackets = 95% confidence interval), the “moles of binding sites (mL)” value is listed as 2.34 (± 1.16) × 10^–7 mol. In addition, the “type of binding site on HSA” value on human serum albumin [4] (linear double-reciprocal plot, 1-20 µM FA) is on record as “single type of binding site”. In addition, the “PPBHSA (%)” value came to 69.40 ± 0.53% at human serum albumin [3] and 69.40% at human serum albumin [3] (listed as folic acid).

`Nc1ccc(O)c(C(=O)O)c1` [MSZ, mesalazine]: the “log kw C18” value in data set [1] is 0.37 and 0.37 ± 0.19. The “log kw IAM” value in data set [2] was 0.17 and 0.17 ± 0.02. In addition, at human serum albumin [3], the “PPBHSA (%)” value was found to be 61.44 ± 0.51%.

As for `O=C(O)c1cc(/N=N/c2ccc(O)c(C(=O)O)c2)ccc1O` [OSZ, olsalazine], the “log kw C18” value in data set [1] amounted to 3.25 ± 0.09. Besides, in data set [2], the “log kw IAM” value is 1.69 ± 0.17. Also, the “PPBHSA (%)” value on human serum albumin [3] is reported as 96.00 ± 0.03%.

Consider `O=C(O)c1cc(/N=N/c2ccc(S(=O)(=O)Nc3ccccn3)cc2)ccc1O` [SASP, sulfasalazine], for which, in data set [1], the “log kw C18” value is reported as 3.71 ± 0.24. The “log kw IAM” value in data set [2] worked out at 2.77 ± 0.23.
